Active and inactive are the calls of the source. The rule behind the calls is not given here.
Each molecule was assayed on HepG2 (assay: Upregulation of InsR […] expression in human liver HepG2 at 10 ug/mL after 12 hrs by flow cytometry).
Assay type: functional, cell-based
With `COc1c(O)ccc2cc3[n+](cc12)CCc1cc2c(cc1-3)OCO2.[Cl-]` [THALIFENDINE] the Activity was “Active”.

Each molecule was assayed on HepG2 (assay: Upregulation of LDLR mRNA expression in human liver HepG2 at 10 ug/mL after 8 hrs by RT-PCR relative to control).
Assay type: functional
With `COc1cc2cc3[n+](cc2cc1OC)CCc1cc(OCc2ccccc2)ccc1-3.[Cl-]` the “fold change (FC)” value was 1. In the case of `COc1cc2cc3[n+](cc2cc1OC)CCc1cc(OC)c(OC)c(OC)c1-3.[Cl-]`, the “fold change (FC)” value is reported as 1.1. In the case of `COc1ccc2cc3[n+](cc2c1OC)CCc1cc2c(cc1-3)OCO2.[Cl-]` [BERBERINE CHLORIDE], the “fold change (FC)” value is reported as 1.9. `COc1cc2c(cc1O)CC[n+]1cc3cc(O)ccc3cc1-2.[Cl-]` was tested, and the “fold change (FC)” value was 1.4. `COc1cc2c(cc1OCc1ccccc1)-c1cc3ccc(OC)c(OC)c3c[n+]1CC2.[Cl-]` was tested, and the “fold change (FC)” value was 1.5. In the case of `COc1cc2cc3[n+](cc2cc1OC)CCc1cc(O)ccc1-3.[Cl-]`, the “fold change (FC)” value is reported as 0.9. In the case of `COc1ccc2cc3[n+](cc2c1OC)CCc1cc(O)ccc1-3.[Cl-]`, the “fold change (FC)” value is reported as 0.8. `COc1cc2c(c(OC)c1OC)-c1cc3ccc(OC)c(OC)c3c[n+]1CC2.[Cl-]` was tested, and the “fold change (FC)” value was 1.1. With `COc1cc2c(cc1OC)-c1cc3cc(OC)c(OC)cc3c[n+]1CC2.[Cl-]` the “fold change (FC)” value was 1.1. `COc1cc2c(cc1OC)-c1cc3ccc(O)cc3c[n+]1CC2.[Cl-]` was tested, and the “fold change (FC)” value was 1. With `COc1cc2c(cc1O)CC[n+]1cc3cc(OC)c(OC)cc3cc1-2.[Cl-]` [DEHYDRODISCRETINE CHLORIDE] the “fold change (FC)” value was 1. With `COc1cc2c(cc1O)-c1cc3cc(OC)c(OC)cc3c[n+]1CC2.[Cl-]` the “fold change (FC)” value was 1.1. `COc1cc2cc3[n+](cc2cc1OC)CCc1cc2c(cc1-3)OCO2.[Cl-]` [PSEUDOBERBERINE] was tested, and the “fold change (FC)” value was 3.1. For `COc1ccc2cc3[n+](cc2c1OC)CCc1cc(OCc2ccccc2)ccc1-3.[Cl-]`, the “fold change (FC)” value was 1.3. `COc1c(O)ccc2cc3[n+](cc12)CCc1cc2c(cc1-3)OCO2.[Cl-]` [THALIFENDINE] was tested, and the “fold change (FC)” value was 1.6. `COc1cc2c(cc1O)CC[n+]1cc3cc(OC)c(OC)c(OC)c3cc1-2.[Cl-]` was tested, and the “fold change (FC)” value was 1. In the case of `Oc1ccc2cc3[n+](cc2c1)CCc1cc2c(cc1-3)OCO2.[Cl-]`, the “fold change (FC)” value is reported as 1.9.

These molecules were tested on HepG2 (assay: Upregulation of InsR mRNA expression in human liver HepG2 at 10 ug/mL after 8 hrs by RT-PCR relative to control).
Assay type: functional
With `COc1cc2cc3[n+](cc2cc1OC)CCc1cc(OCc2ccccc2)ccc1-3.[Cl-]` the “fold change (FC)” value was 0.8. `COc1cc2cc3[n+](cc2cc1OC)CCc1cc(OC)c(OC)c(OC)c1-3.[Cl-]` was tested, and the “fold change (FC)” value was 0.8. For `COc1ccc2cc3[n+](cc2c1OC)CCc1cc2c(cc1-3)OCO2.[Cl-]` [BERBERINE CHLORIDE], the “fold change (FC)” value was 2.3. With `COc1cc2c(cc1O)CC[n+]1cc3cc(O)ccc3cc1-2.[Cl-]` the “fold change (FC)” value was 1.2. With `COc1cc2c(cc1OCc1ccccc1)-c1cc3ccc(OC)c(OC)c3c[n+]1CC2.[Cl-]` the “fold change (FC)” value was 1.7. With `COc1cc2cc3[n+](cc2cc1OC)CCc1cc(O)ccc1-3.[Cl-]` the “fold change (FC)” value was 0.7. For `COc1ccc2cc3[n+](cc2c1OC)CCc1cc(O)ccc1-3.[Cl-]`, the “fold change (FC)” value was 1.2. With `COc1cc2c(c(OC)c1OC)-c1cc3ccc(OC)c(OC)c3c[n+]1CC2.[Cl-]` the “fold change (FC)” value was 1.2. In the case of `COc1cc2c(cc1OC)-c1cc3cc(OC)c(OC)cc3c[n+]1CC2.[Cl-]`, the “fold change (FC)” value is reported as 1.1. `COc1cc2c(cc1OC)-c1cc3ccc(O)cc3c[n+]1CC2.[Cl-]` was tested, and the “fold change (FC)” value was 0.9. In the case of `COc1cc2c(cc1O)CC[n+]1cc3cc(OC)c(OC)cc3cc1-2.[Cl-]` [DEHYDRODISCRETINE CHLORIDE], the “fold change (FC)” value is reported as 0.6. `COc1cc2c(cc1O)-c1cc3cc(OC)c(OC)cc3c[n+]1CC2.[Cl-]` was tested, and the “fold change (FC)” value was 0.8. For `COc1cc2cc3[n+](cc2cc1OC)CCc1cc2c(cc1-3)OCO2.[Cl-]` [PSEUDOBERBERINE], the “fold change (FC)” value was 1.2. With `COc1ccc2cc3[n+](cc2c1OC)CCc1cc(OCc2ccccc2)ccc1-3.[Cl-]` the “fold change (FC)” value was 1.3. For `COc1c(O)ccc2cc3[n+](cc12)CCc1cc2c(cc1-3)OCO2.[Cl-]` [THALIFENDINE], the “fold change (FC)” value was 1.7. With `COc1cc2c(cc1O)CC[n+]1cc3cc(OC)c(OC)c(OC)c3cc1-2.[Cl-]` the “fold change (FC)” value was 1. With `Oc1ccc2cc3[n+](cc2c1)CCc1cc2c(cc1-3)OCO2.[Cl-]` the “fold change (FC)” value was 1.4.

These molecules were tested on HepG2 (assay: Upregulation of LDLR […] expression in human liver HepG2 at 10 ug/mL after 12 hrs by flow cytometry).
Assay type: functional, cell-based
In the case of `COc1c(O)ccc2cc3[n+](cc12)CCc1cc2c(cc1-3)OCO2.[Cl-]` [THALIFENDINE], the Activity is reported as “Active”.

Reference: ChEMBL document CHEMBL1154197, “Synthesis and biological evaluation of berberine analogues as novel up-regulators for both low-density-lipoprotein receptor and insulin receptor” (2009)
